Experimental data taken from ChEMBL document CHEMBL5625227, “Discovery and optimization of 2,3-diaryl-1,3-thiazolidin-4-one-based derivatives as potent and selective cytotoxic agents with anti-inflammatory activity” (Eur J Med Chem, 2023).
Calls of active or inactive are those of the source. The rule behind the calls is not given here.

Key:
[1] = Selectivity index, ratio of IC50 for cytotoxicity against human MRC5 cells to IC50 for cytotoxicity against human A2780 cells; conditions: MRC5 cells versus A2780 cells
A2780 = test: Cytotoxicity against human A2780 cells assessed as inhibition in cell growth incubated for 72 hrs by MTT assay; assay type: functional, cell-based; conditions: A2780, 72 h
[2] = Selectivity index, ratio of IC50 for cytotoxicity against human MRC5 cells to IC50 for cytotoxicity against human HT-29 cells; conditions: MRC5 cells versus HT-29 cells
[3] = Selectivity index, ratio of IC50 for cytotoxicity against human MRC5 cells to IC50 for cytotoxicity against human MCF7 cells; conditions: MRC5 cells versus MCF7 cells
MCF7 [4] = test: Cytotoxicity against human MCF7 cells assessed as inhibition in cell growth incubated for 72 hrs by MTT assay; assay type: functional, cell-based; conditions: MCF7, 72 h
[5] = Cytotoxicity against human MRC5 cells assessed as inhibition in cell growth incubated for 72 hrs by MTT assay; assay type: toxicity, cell-based
HT-29 = test: Cytotoxicity against human HT-29 cells assessed as inhibition in cell growth incubated for 72 hrs by MTT assay; assay type: functional, cell-based; conditions: HT-29, 72 h
THP-1 = test: Cytotoxicity against human THP-1 cells assessed as inhibition in cell growth; assay type: functional, cell-based
Rattus norvegicus [6] = test: Antiinflammatory activity against carrageenan-induced paw edema Sprague-Dawley rat model assessed as inhibition of inflammation at 50 mg/kg, po after 1 hr relative to control; assay type: functional; parameters: scale not given: the % may be the effect or the level left
[7] = biological target: T1, Prostaglandin G/H synthase 1 (Ovis aries, UniProt P05979); test: Inhibition of ovine COX-1
T1 sequence (P05979 whole entry): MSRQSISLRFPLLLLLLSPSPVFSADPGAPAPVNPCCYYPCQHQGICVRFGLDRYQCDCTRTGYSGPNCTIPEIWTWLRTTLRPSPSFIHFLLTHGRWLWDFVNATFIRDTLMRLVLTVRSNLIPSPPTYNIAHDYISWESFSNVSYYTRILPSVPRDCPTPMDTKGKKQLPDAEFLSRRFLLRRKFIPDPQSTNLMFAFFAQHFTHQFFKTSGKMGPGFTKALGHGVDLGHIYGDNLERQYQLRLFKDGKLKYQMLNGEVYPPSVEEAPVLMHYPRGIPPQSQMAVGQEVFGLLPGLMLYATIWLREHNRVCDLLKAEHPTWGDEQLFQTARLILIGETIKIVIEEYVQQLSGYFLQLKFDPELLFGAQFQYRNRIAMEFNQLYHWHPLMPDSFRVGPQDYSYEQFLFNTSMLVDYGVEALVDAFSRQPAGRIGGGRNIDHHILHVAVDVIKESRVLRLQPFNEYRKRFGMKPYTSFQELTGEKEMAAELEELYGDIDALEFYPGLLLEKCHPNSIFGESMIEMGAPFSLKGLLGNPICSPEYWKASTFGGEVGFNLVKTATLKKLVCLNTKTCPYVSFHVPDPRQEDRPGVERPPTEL

Rattus norvegicus [8] = test: Antiinflammatory activity against carrageenan-induced paw edema Sprague-Dawley rat model assessed as inhibition of paw edema by measuring edema thickness at 50 mg/kg, po measured after 3 hrs (reference value: 1.41 +/- 0.13 mm); assay type: functional
Rattus norvegicus [9] = test: Antiinflammatory activity against carrageenan-induced paw edema Sprague-Dawley rat model assessed as inhibition of inflammation at 50 mg/kg, po after 3 hrs relative to control; assay type: functional; parameters: scale not given: the % may be the effect or the level left
Rattus norvegicus [10] = test: Antiinflammatory activity against carrageenan-induced paw edema Sprague-Dawley rat model assessed as inhibition of inflammation at 50 mg/kg, po after 5 hrs relative to control; assay type: functional; parameters: scale not given: the % may be the effect or the level left
Rattus norvegicus [11] = test: Antiinflammatory activity against carrageenan-induced paw edema Sprague-Dawley rat model assessed as inhibition of paw edema by measuring edema thickness at 50 mg/kg, po measured after 5 hrs (reference value: 1.39 +/- 0.11 mm); assay type: functional
Rattus norvegicus [12] = test: Antiinflammatory activity against carrageenan-induced paw edema Sprague-Dawley rat model assessed as inhibition of paw edema by measuring edema thickness at 50 mg/kg, po measured after 1 hr (reference value: 0.71 +/- 0.03 mm); assay type: functional
[13] = Acute ulcerogenic activity in Sprague-Dawley male rat assessed as ulcer index at 50 mg/kg/day, po administered for 3 days; assay type: toxicity, organism-based; conditions: in vivo, 72 h, time 3 day
[14] = Acute ulcerogenic activity in Sprague-Dawley male rat assessed as abnormal structure of the gastric layer by measuring deeply congested blood vessels and aggregated of inflammatory cells at 50 mg/kg/day, po administered for 3 days by hematoxylin and eosin staining method; assay type: toxicity, organism-based, Stomach; conditions: in vivo, 72 h, time 3 day
[15] = Acute ulcerogenic activity in Sprague-Dawley male rat assessed as abnormal structure of the gastric layer by measuring infiltration of macrophages in lamina propria at 50 mg/kg/day, po administered for 3 days by hematoxylin and eosin staining method; assay type: toxicity, organism-based, Stomach; conditions: in vivo, 72 h, time 3 day
[16] = Acute ulcerogenic activity in Sprague-Dawley male rat assessed as abnormal structure of the gastric layer by measuring glandular hyperactivation in submucosa at 50 mg/kg/day, po administered for 3 days by hematoxylin and eosin staining method; assay type: toxicity, organism-based, Stomach; conditions: in vivo, 72 h, time 3 day
[17] = Acute ulcerogenic activity in Sprague-Dawley male rat assessed as abnormal structure of the gastric layer by measuring inflammatory cells infiltration in lamina propria at 50 mg/kg/day, po administered for 3 days by hematoxylin and eosin staining method; assay type: toxicity, organism-based, Stomach; conditions: in vivo, 72 h, time 3 day
[18] = Acute ulcerogenic activity in Sprague-Dawley male rat assessed as incidence of ulcer/10 animal at 50 mg/kg/day, po administered for 3 days; assay type: toxicity, organism-based; conditions: in vivo, 72 h, time 3 day
[19] = Acute ulcerogenic activity in Sprague-Dawley male rat assessed as average number of ulcers at 50 mg/kg/day, po administered for 3 days; assay type: toxicity, organism-based; conditions: in vivo, 72 h, time 3 day
[20] = Acute ulcerogenic activity in Sprague-Dawley male rat assessed as abnormal structure of the gastric layer by measuring infiltration of lymphocytes in submucosa at 50 mg/kg/day, po administered for 3 days by hematoxylin and eosin staining method; assay type: toxicity, organism-based, Stomach; conditions: in vivo, 72 h, time 3 day
[21] = Acute ulcerogenic activity in Sprague-Dawley male rat assessed as average severity of ulcers at 50 mg/kg/day, po administered for 3 days; assay type: toxicity, organism-based; conditions: in vivo, 72 h, time 3 day
[22] = Acute ulcerogenic activity in Sprague-Dawley male rat assessed as abnormal structure of the gastric layer by measuring infiltration of macrophages in submucosa at 50 mg/kg/day, po administered for 3 days by hematoxylin and eosin staining method; assay type: toxicity, organism-based, Stomach; conditions: in vivo, 72 h, time 3 day
[23] = Acute ulcerogenic activity in Sprague-Dawley male rat assessed as abnormal structure of the gastric layer by measuring infiltration of lymphocytes in lamina propria at 50 mg/kg/day, po administered for 3 days by hematoxylin and eosin staining method; assay type: toxicity, organism-based, Stomach; conditions: in vivo, 72 h, time 3 day
Sus scrofa = species on record: Sus scrofa; test: Induction of porcine brain tubulin polymerization at 3 uM by fluorescence-based tubulin polymerization assay
PC-3 = test: Cytotoxicity against human PC-3 cells assessed as inhibition in cell growth; assay type: functional, cell-based
MCF7 [24] = test: Cytotoxicity against human MCF7 cells assessed as inhibition in cell growth; assay type: functional, cell-based
HepG2 = test: Cytotoxicity against human HepG2 cells assessed as inhibition in cell growth; assay type: functional, cell-based
HCT-116 = test: Cytotoxicity against human HCT-116 cells assessed as inhibition in cell growth; assay type: functional, cell-based

Row | SMILES | selectivity ratio at 72 h [1] | IC50 (A2780) | selectivity ratio at 72 h [2] | selectivity ratio at 72 h [3] | IC50 (MCF7 [4]) | IC50 at 72 h [5] | IC50 (HT-29) | further results
1 | Cc1ccc(NC(=O)COc2ccc(N3C(=O)CSC3c3ccc(Cl)cc3)cc2)cc1 (stereo not given) | 1.94 | 1640 nM | 3.57 | 1.53 | 2080 nM | 3180 nM | 890 nM | 
2 | COc1ccc(N2C(=O)CSC2c2cc(OC)c(OC)c(OC)c2)cc1 (stereo not given) |  |  |  |  |  |  |  | IC50 (THP-1): 1210 nM
3 | Cc1ccc(C2SCC(=O)N2c2ccc(OCC(=O)Nc3ccccc3)cc2)cc1 (stereo not given) | 0.32 | 2810 nM | 0.79 | 0.77 | 1150 nM | 890 nM | 1130 nM | 
4 | O=C(COc1ccc(N2C(=O)CSC2c2ccccc2)cc1)Nc1ccc(F)cc1 (stereo not given) | 2.53 | 5320 nM | 2.62 | 4.89 | 2750 nM | 13500 nM | 5130 nM | 
5 | O=C(COc1ccc(N2C(=O)CSC2c2ccccc2)cc1)Nc1ccccc1 (stereo not given) | 0.52 | 7070 nM | 0.77 | 1.54 | 2390 nM | 3690 nM | 4810 nM | 
6 | COc1ccc(NC(=O)COc2ccc(N3C(=O)CSC3c3ccc(C)cc3)cc2)cc1 (stereo not given) | 0.61 | 4700 nM | 0.54 | 1.17 | 2470 nM | 2890 nM | 5340 nM | Activity (Rattus norvegicus [6]): 15.3%; IC50 [7]: 8370 nM; Activity (Rattus norvegicus [8]): 0.79 mm; Activity (Rattus norvegicus [9]): 32.7%; Activity (Rattus norvegicus [10]): 47.48%; Activity (Rattus norvegicus [11]): 0.73 mm; Activity (Rattus norvegicus [12]): 0.61 mm
7 | COc1ccc2c(c1)c(CC(=O)O)c(C)n2C(=O)c1ccc(Cl)cc1 [INDOMETHACIN] |  |  |  |  |  |  |  | Activity (Rattus norvegicus [6]): 42.25%; UI [13]: 22.33; Activity [14]: Toxic; Activity [15]: Toxic; Activity [16]: Toxic; Activity [17]: Toxic; Activity [18]: 10%; Activity (Rattus norvegicus [8]): 0.22 mm; Activity [19]: 11.33; Activity (Rattus norvegicus [11]): 0.24 mm; Activity (Rattus norvegicus [12]): 0.41 mm; Activity [20]: Toxic; Activity [21]: 1; Activity [22]: Toxic; Activity [23]: Toxic
8 | CC(=O)O[C@H]1C(=O)[C@@]2(C)[C@H]([C@H](OC(=O)c3ccccc3)[C@]3(O)C[C@H](OC(=O)[C@H](O)[C@@H](NC(=O)c4ccccc4)c4ccccc4)C(C)=C1C3(C)C)[C@]1(OC(C)=O)CO[C@@H]1C[C@@H]2O |  |  |  |  |  |  |  | Activity (Sus scrofa): Active
9 | O=C(COc1ccc(N2C(=O)CSC2c2ccc(Cl)cc2)cc1)Nc1ccc(Cl)cc1 (stereo not given) | 0.84 | 7840 nM | 5 | 2.83 | 2330 nM | 6600 nM | 1320 nM | 
10 | O=C(COc1ccc(N2C(=O)CSC2c2ccc(Cl)cc2)cc1)Nc1ccc(F)cc1 (stereo not given) | 0.79 | 11000 nM | 13.6 | 5.97 | 1460 nM | 8720 nM | 640 nM | 
11 | Cc1ccc(NC(=O)COc2ccc(N3C(=O)CSC3c3ccccc3)cc2)cc1 (stereo not given) | 1.75 | 1630 nM | 1.35 | 1.59 | 1790 nM | 2850 nM | 2110 nM | Activity (Rattus norvegicus [6]): 15.3%; IC50 [7]: 4550 nM; Activity (Rattus norvegicus [8]): 0.67 mm; Activity (Rattus norvegicus [9]): 32.7%; Activity (Rattus norvegicus [10]): 47.48%; Activity (Rattus norvegicus [11]): 0.69 mm; Activity (Rattus norvegicus [12]): 0.57 mm
12 | COc1ccc(NC(=O)COc2ccc(N3C(=O)CSC3c3ccccc3)cc2)cc1OC (stereo not given) | 5.76 | 1280 nM | 3.43 | 4.19 | 1760 nM | 7370 nM | 2150 nM | 
13 | O=C(COc1ccc(N2C(=O)CSC2c2ccc(Cl)cc2)cc1)Nc1ccccc1 (stereo not given) | 0.57 | 2600 nM | 3.36 | 1.13 | 1310 nM | 1480 nM | 440 nM | 
14 | Cc1ccc(NC(=O)COc2ccc(N3C(=O)CSC3c3ccc(C)cc3)cc2)cc1 (stereo not given) | 1.1 | 2820 nM | 4.44 | 2.34 | 1330 nM | 3110 nM | 700 nM | 
15 | COc1cc(NC(=O)COc2ccc(N3C(=O)CSC3c3ccccc3)cc2)cc(OC)c1OC (stereo not given) | 4.69 | 2000 nM | 2.92 | 4.13 | 2270 nM | 9380 nM | 3210 nM | 
16 | COc1ccc(NC(=O)COc2ccc(N3C(=O)CSC3c3ccc(Cl)cc3)cc2)cc1 (stereo not given) | 0.78 | 1280 nM | 1.28 | 0.81 | 1240 nM | 1000 nM | 780 nM | 
17 | O=C(COc1ccc(N2C(=O)CSC2c2ccccc2)cc1)Nc1ccc(Cl)cc1 (stereo not given) | 0.63 | 17000 nM | 3.02 | 1.79 | 5960 nM | 10600 nM | 3530 nM | Activity (Rattus norvegicus [6]): 15.3%; IC50 [7]: 36500 nM; Activity (Rattus norvegicus [8]): 0.63 mm; Activity (Rattus norvegicus [9]): 32.7%; Activity (Rattus norvegicus [10]): 47.48%; Activity (Rattus norvegicus [11]): 0.53 mm; Activity (Rattus norvegicus [12]): 0.54 mm
18 | CC(=O)c1ccc(NC(=O)COc2ccc(C3SCC(=O)N3c3ccccc3)cc2)cc1 (stereo not given) |  |  |  |  |  |  |  | IC50 (PC-3): 18200 nM; IC50 (MCF7 [24]): 18200 nM; IC50 (HepG2): 18200 nM; IC50 (HCT-116): 18200 nM
19 | COc1cccc2c1C(=O)c1c(O)c3c(c(O)c1C2=O)C[C@@](O)(C(=O)CO)C[C@@H]3O[C@H]1C[C@H](N)[C@H](O)[C@H](C)O1 [DOXORUBICIN] |  | 5120 nM |  |  |  | 2500 nM | 1500 nM | 
20 | COc1cc2c(c(OC)c1OC)-c1ccc(OC)c(=O)cc1[C@@H](NC(C)=O)CC2 [COLCHICINE] |  | 23 nM |  |  |  |  | 5190 nM | 
